In ChEMBL document CHEMBL1143732, “3-Hydroxy-1,5-dihydro-pyrrol-2-one derivatives as advanced inhibitors of HIV integrase” (Bioorg Med Chem, 2007):
pEC50, pIC50: −log10 of the molar value.

Legend:
[1] = tested on: Human immunodeficiency virus; experiment: Antiviral activity against HIV; assay type: functional, organism-based; details: Human immunodeficiency virus 1
[2] = Inhibition of HIV integrase by MWPA-Mg enzymatic assay; parameters: species or system Human immunodeficiency virus
[3] = Inhibition of HIV integrase by MWPA-Mn enzymatic assay; parameters: species or system Human immunodeficiency virus

pEC50 [1] | pIC50 [2] | pIC50 [3] | SMILES
6.17 | 6.80 |  | COCCN1CC(C(=O)c2ccc(Cc3ccc(F)cc3)o2)=C(O)C1=O
6.62 | 7.40 |  | O=C1NCC(c2cc(OCc3ccc(F)cc3)ncn2)=C1O
5.47 | 6.74 |  | O=C(C1=C(O)C(=O)N(CCN2CCOCC2)C1)c1ccc(Cc2ccc(F)cc2)o1
6.74 | 7.52 | > 7.68 | CN1CC(c2ccc(OCc3ccc(F)cc3)cn2)=C(O)C1=O
4.34 | 6.32 | 7.18 | O=C(O)/C(O)=C/c1ccc(OCc2ccc(F)cc2)cn1
5.85 | 7.09 |  | CC(C)N1CC(c2cc(OCc3ccc(F)cc3)ncn2)=C(O)C1=O
4.89 | 6.77 |  | COc1ccc(N2CC(C(=O)c3ccc(Cc4ccc(F)cc4)o3)=C(O)C2=O)cc1
6.26 | 7.10 |  | CC(C)N1CC(C(=O)c2ccc(Cc3ccc(F)cc3)o2)=C(O)C1=O
4.47 | 5.02 | 7.43 | O=C(O)/C(O)=C/c1cc(CCc2ccccc2)ncn1
6.77 | 7.43 | > 7.68 | CN1CC(c2ccc(Cc3ccc(F)cc3)cn2)=C(O)C1=O

Continued, molecule first:

SMILES | pEC50 [1] | pIC50 [2] | pIC50 [3]
CN1CC(c2ccc(Oc3ccc(F)cc3)cn2)=C(O)C1=O | 5.72 | 7.10 | > 7.68
CN1CC(C(=O)c2ccc(Cc3ccc(F)cc3)o2)=C(O)C1=O | 6.20 | 7.09 | 
NC(=O)/C(O)=C/c1cc(CCc2ccccc2)ncn1 | 4.31 | 5.17 | 4.15
O=C(O)/C(O)=C/c1cc(OCc2ccc(F)cc2)ccn1 | 5.10 | 7.03 | 7.85
O=C(O)/C(O)=C/c1ccc(Oc2ccc(F)cc2)cn1 | < 4.14 | 5.06 | 6.96
O=C(/C=C(\O)c1nc[nH]n1)c1ccc(Cc2ccc(F)cc2)o1 [S-1360] | 6.70 |  | 
O=C1C(O)=C(c2cc(OCc3ccc(F)cc3)ncn2)CN1CCO | 6.42 | 7.34 | 
COc1ccc(CN2CC(c3cc(OCc4ccc(F)cc4)ncn3)=C(O)C2=O)cc1 | 5.48 | 6.85 | 
COCCN1CC(c2cc(OCc3ccc(F)cc3)ncn2)=C(O)C1=O | 6.33 | 7.28 | 
CN1CC(c2cc(CCc3ccc(F)cc3)ncn2)=C(O)C1=O | 6.10 | 6.49 | 6.49
CN1CC(c2cc(OCc3ccc(F)cc3)ncn2)=C(O)C1=O | 6.49 | 7.20 | 6.52
O=C(/C(O)=C/c1cc(CCc2ccccc2)ncn1)N1CCOCC1 | < 4.23 | 3.63 | 3.58
O=C(C1=C(O)C(=O)N(C2CCCC2)C1)c1ccc(Cc2ccc(F)cc2)o1 | 5.82 | 6.89 | 
CNC(=O)/C(O)=C/c1cc(CCc2ccccc2)ncn1 | 4.62 | 4.96 | 4.41
CCCN1CC(c2cc(OCc3ccc(F)cc3)ncn2)=C(O)C1=O | 5.05 | 6.57 | 
O=C(O)/C(O)=C/c1ccc(Cc2ccc(F)cc2)cn1 | 5.06 | 5.85 | 7.02
O=C(O)/C(O)=C/c1cc(CCc2ccc(F)cc2)ccn1 | 4.57 | 5.74 | 7.23
O=C(C1=C(O)C(=O)N(Cc2ccccc2)C1)c1ccc(Cc2ccc(F)cc2)o1 | 5.13 | 6.74 | 
O=C1NCC(C(=O)c2ccc(Cc3ccc(F)cc3)o2)=C1O | 6.03 | 7.00 | 
O=C(C1=C(O)C(=O)N(CCO)C1)c1ccc(Cc2ccc(F)cc2)o1 | 5.26 | 7.12 | 
